According to patent US6737383B1, “Herbicidal oxadiazolidines” (priority 1999, dated 2004):

Legend:
[1] = system: velvetleaf; assay: Test B pre/postemergence velvetleaf; format: in vivo, Abutilon theophrasti
Procedure, shortened: (§1)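 Herbicidal effect was estimated by eye on a ten-point control scale after plants spent twelve to sixteen days in a greenhouse following soil or foliar treatment. Foliar sprays targeted plants at one to four leaves; all doses were formulated in a non-phytotoxic solvent with surfactant.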

[2] = system: bedstraw; assay: Test B pre/postemergence bedstraw; format: in vivo, Galium aparine
Procedure, shortened: as §1

[3] = system: purple nutsedge; assay: Test B pre/postemergence purple nutsedge; format: in vivo, Cyperus rotundus
Procedure, shortened: as §1

[4] = system: surinam grass; assay: Test B pre/postemergence surinam grass; format: in vivo, Brachiaria decumbens
Procedure, shortened: as §1

[5] = system: rape; assay: Test B pre/postemergence rape; format: in vivo, Brassica napus
Procedure, shortened: as §1

[6] = system: sugar beet; assay: Test B pre/postemergence sugar beet; format: in vivo, Beta vulgaris
Procedure, shortened: as §1

[7] = system: bamyardgrass; assay: Test B flood test barnyardgrass; format: in vivo, Echinochloa crus-galli
Procedure, shortened: (§2)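 Flood test on plants grown to the 2-leaf stage; treated plants kept in greenhouse twelve to sixteen days, then visually rated against controls on a 0 (no effect) to 10 (complete control) scale.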

[8] = system: pigweed; assay: Test B pre/postemergence pigweed; format: in vivo, Amaranthus retroflexus
Procedure, shortened: as §1

[9] = system: crabgrass; assay: Test B pre/postemergence crabgrass; format: in vivo, Digitaria sanguinalis
Procedure, shortened: as §1

[10] = system: wild oat; assay: Test B pre/postemergence wild oat; format: in vivo, Avena fatua
Procedure, shortened: as §1

[11] = system: cocklebur; assay: Test B pre/postemergence cocklebur; format: in vivo, Xanthium strumarium
Procedure, shortened: as §1

[12] = system: soybean; assay: Test B pre/postemergence soybean; format: in vivo, Glycine max
Procedure, shortened: as §1

[13] = system: smallflower flatsedge; assay: Test B flood test smallflower flatsedge; format: in vivo, Cyperus difformis
Procedure, shortened: as §2

[14] = system: blackgrass; assay: Test B pre/postemergence blackgrass; format: in vivo, Alopecurus myosuroides
Procedure, shortened: as §1

[15] = system: wheat; assay: Test B pre/postemergence wheat; format: in vivo, Triticum aestivum
Procedure, shortened: as §1

[16] = system: corn; assay: Test B pre/postemergence corn; format: in vivo, Zea mays
Procedure, shortened: as §1

[17] = Postemergence, Rate 62 g/ha, scale of 0 to 10, 0 is no effect, 10 is complete control
[18] = Postemergence, Rate 125 g/ha, scale 0 to 10, 0 is no effect, 10 is complete control
[19] = Postemergence, Rate 500 g/ha, scale 0 to 10, 0 is no effect, 10 is complete control
[20] = Preemergence, Rate 62 g/ha, scale of 0 to 10 where 0 is no effect and 10 is complete control
[21] = Preemergence, Rate 125 g/ha, scale 0 to 10, 0 is no effect, 10 is complete control
[22] = Preemergence, Rate 500 g/ha, scale of 0 to 10 where 0 is no effect and 10 is complete control
[23] = Rate 250 g/ha, Postemergence, scale of 0 to 10 where 0 is no effect and 10 is complete control
[24] = Rate 62 g/ha, flood test species, Pre-emergence, visual evaluation after twelve to sixteen days
[25] = Rate 125 g/ha, under heading Pre-emergence, flood test species, visual evaluation after twelve to sixteen days
[26] = Rate 250 g/ha, Pre-emergence (flood test species), scale 0 to 10, 0 is no effect, 10 is complete control
[27] = Rate 500 g/ha, Pre-emergence section of Table B, 0 to 10 scale (0 no effect, 10 complete control)

CC(C)N(C(=O)n1oc(=O)n(CCC2OCCO2)c1=O)c1ccc(Cl)cc1 [Compound 531]
5: Velvetleaf plant response rating [1, 22] | Plant response rating, Cocklebur [11, 19]
2: Velvetleaf plant response rating (0 to 10 scale) ([1]; Preemergence, Rate 250 g/ha) | Plant response rating, B. signalgrass [4, 20] | B. signalgrass plant response rating [4, 21] | B. signalgrass plant response rating (0 to 10 scale, 0 is no effect, 10 is complete control) ([4]; Preemergence, Rate 250 g/ha) | Plant response rating, Rape [5, 19] | Crabgrass plant response rating [9, 17] | Plant response rating, Cocklebur [11, 23] | Plant response rating, Blackgrass [14, 20]
6: Plant response rating, Sugarbeets [6, 19] | Plant response rating, Soybean [12, 19] | Plant response rating, Soybean [12, 23] | Plant response rating, Blackgrass [14, 19]
0: Velvetleaf plant response rating [1, 17] | Velvetleaf plant response rating [1, 18] | Plant response rating, Velvetleaf [1, 20] | Velvetleaf plant response rating [1, 21] | Plant response rating, Velvetleaf [1, 23] | Bedstraw plant response rating [2, 17] | Bedstraw plant response rating [2, 18] | Plant response rating, Bedstraw [2, 20] | Bedstraw plant response rating (0 to 10 scale) ([2]; Preemergence, Rate 250 g/ha) | Plant response rating, Bedstraw [2, 23] | Nutsedge plant response rating [3, 17] | Nutsedge plant response rating [3, 18] | Plant response rating, Nutsedge [3, 20] | Nutsedge plant response rating [3, 21] | Nutsedge plant response rating (0 to 10 scale) ([3]; Preemergence, Rate 250 g/ha) | Nutsedge plant response rating [3, 22] | Plant response rating, Nutsedge [3, 23] | B. signalgrass plant response rating [4, 17] | B. signalgrass plant response rating [4, 18] | Plant response rating, B. signalgrass [4, 23] | Rape plant response rating [5, 17] | Rape plant response rating [5, 18] | Plant response rating, Rape [5, 20] | Rape plant response rating [5, 21] | Rape plant response rating (0 to 10 scale) ([5]; Preemergence, Rate 250 g/ha) | Plant response rating, Rape [5, 23] | Sugarbeets plant response rating [6, 17] | Sugarbeets plant response rating [6, 18] | Plant response rating, Sugarbeets [6, 20] | Plant response rating, Sugarbeets [6, 23] | Plant response rating, Barnyardgrass (0 to 10 scale, 0 is no effect, 10 is complete control) [7, 24] | Barnyardgrass plant response rating (0 to 10 scale, 0 is no effect, 10 is complete control) [7, 25] | Barnyardgrass plant response rating [7, 26] | Barnyardgrass plant response rating [7, 27] | Redroot pigweed plant response rating [8, 17] | Redroot pigweed plant response rating [8, 18] | Plant response rating, Redroot pigweed [8, 19] | Plant response rating, Redroot pigweed [8, 20] | Redroot pigweed plant response rating [8, 21] | Redroot pigweed plant response rating (0 to 10 scale) ([8]; Preemergence, Rate 250 g/ha) | Plant response rating, Redroot pigweed [8, 23] | Wild oats plant response rating [10, 17] | Wild oats plant response rating [10, 18] | Plant response rating, Wild oats [10, 19] | Plant response rating, Wild oats [10, 20] | Wild oats plant response rating [10, 21] | Wild oats plant response rating (0 to 10 scale) ([10]; Preemergence, Rate 250 g/ha) | Plant response rating, Wild oats [10, 23] | Cocklebur plant response rating [11, 17] | Cocklebur plant response rating [11, 18] | Plant response rating, Cocklebur [11, 20] | Cocklebur plant response rating [11, 21] | Cocklebur plant response rating (0 to 10 scale) ([11]; Preemergence, Rate 250 g/ha) | Cocklebur plant response rating [11, 22] | Plant response rating, Soybean [12, 20] | Soybean plant response rating [12, 21] | Soybean plant response rating (0 to 10 scale) ([12]; Preemergence, Rate 250 g/ha) | Soybean plant response rating [12, 22] | Plant response rating, S. Flatsedge (0 to 10 scale, 0 is no effect, 10 is complete control) [13, 24] | S. Flatsedge plant response rating (0 to 10 scale, 0 is no effect, 10 is complete control) [13, 25] | S. Flatsedge plant response rating [13, 26] | S. Flatsedge plant response rating [13, 27] | Blackgrass plant response rating [14, 17] | Blackgrass plant response rating [14, 18] | Plant response rating, Blackgrass [14, 23] | Wheat plant response rating [15, 17] | Wheat plant response rating [15, 18] | Plant response rating, Wheat [15, 19] | Plant response rating, Wheat [15, 20] | Wheat plant response rating [15, 21] | Wheat plant response rating (0 to 10 scale) ([15]; Preemergence, Rate 250 g/ha) | Plant response rating, Wheat [15, 23] | Corn plant response rating [16, 17] | Corn plant response rating [16, 18] | Plant response rating, Corn [16, 19] | Plant response rating, Corn [16, 20] | Corn plant response rating [16, 21] | Corn plant response rating (0 to 10 scale) ([16]; Preemergence, Rate 250 g/ha) | Corn plant response rating [16, 22] | Plant response rating, Corn [16, 23]
3: Plant response rating, Velvetleaf [1, 19] | Plant response rating, Bedstraw [2, 19] | Plant response rating, Nutsedge [3, 19] | Sugarbeets plant response rating (0 to 10 scale) ([6]; Preemergence, Rate 250 g/ha) | Soybean plant response rating [12, 17] | Soybean plant response rating [12, 18]
10: Plant response rating, Crabgrass [9, 19] | Crabgrass plant response rating [9, 21] | Crabgrass plant response rating (0 to 10 scale) ([9]; Preemergence, Rate 250 g/ha) | Crabgrass plant response rating [9, 22]
9: Plant response rating, Crabgrass [9, 23] | Blackgrass plant response rating [14, 21] | Blackgrass plant response rating (0 to 10 scale) ([14]; Preemergence, Rate 250 g/ha)
8: Crabgrass plant response rating [9, 18] | Plant response rating, Crabgrass [9, 20]
4: Plant response rating, B. signalgrass [4, 19] | Sugarbeets plant response rating [6, 21]
